We go through 2 compounds from patent US7671242B2 (priority 2005, dated 2010).

The conditions of data set [1]: cited from earlier work.
The conditions of data set [2]: cited from earlier work. This is another data set of the same source.
Data set [3] is classed as physicochemical. The settings on record: lipoxidase treatment at 37° C., hexane:ethyl ether extraction, HPLC.
For data set [4] the following is noted: cited from earlier work. This is another data set of the same source.

Values after ≈ are worked out from the molar mass of the structure shown. Like-named read-outs stand apart in the source and are kept apart here.

As to aflatoxin B1 [AFB1], the “Lipid and water solubility” value in data set [1] was “both lipid and water soluble”.
`CC1=C[C@H](O)CC(C)(C)[C@H]1/C=C/C(C)=C/C=C/C(C)=C/C=C/C=C(C)/C=C/C=C(C)/C=C/C1=C(C)C[C@@H](O)CC1(C)C` [Lutein, 3,3′-dihydroxy-alpha-carotene]: the Stability entry is “Unstable to light and oxygen;” in data set [2] (light and oxygen); “Stable if stored at −20 °C under a nitrogen” in data set [2] (stored at −20° C. under a nitrogen atmosphere). In addition, the “initial lutein recovered after enzyme treatment” value in data set [3] is “Approximately 88%”. In addition, the Solubility (in general, the dissolved amount per volume that the medium holds) in data set [4] (Ethyl acetate) is 800 µg/mL (≈ 1410 µM); in data set [4] (Methyl tert butyl ether) it was 2000 µg/mL (≈ 3520 µM). Further, the “Solubility in nonpolar and polar solvents” value in data set [4] (nonpolar and polar solvents) is “soluble in both nonpolar and polar solvents”. In addition, the Solubility in water result in data set [4] (water) is on record as “Insoluble”.
